Target: T1, AvPCP (Trichormus variabilis, UniProt Q3M7N3)
T1 sequence (Q3M7N3 1-234): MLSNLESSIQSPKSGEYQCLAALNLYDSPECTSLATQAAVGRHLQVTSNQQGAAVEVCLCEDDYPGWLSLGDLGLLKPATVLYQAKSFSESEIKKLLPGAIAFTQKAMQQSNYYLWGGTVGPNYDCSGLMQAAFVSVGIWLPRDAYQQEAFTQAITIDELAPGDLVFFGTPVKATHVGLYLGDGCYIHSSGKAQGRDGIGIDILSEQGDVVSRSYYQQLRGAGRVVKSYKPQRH
Assay: hydrolysis of murein tripeptide to Ala-γ-D-Glu and DAP
Type: biochemical
Settings: assay details only in Supplemental Data

`C[C@H](N)C(=O)N[C@H](CCC(=O)N[C@@H](CCC[C@@H](N)C(=O)O)C(=O)O)C(=O)O` [Ala-γ-D-Glu-DAP] was tested, and the “hydrolysis of murein tripeptide to Ala-γ-D-Glu and DAP” value was “AvPCP can, indeed, hydrolyze Ala-γ-D-Glu-DAP to Ala-γ-D-Glu and DAP”.
